Measurements reported in PubChem BioAssay AID463180 (University of Pittsburgh Molecular Library Screening Center, 2010).
The source made the active and inactive calls. The rule behind the calls is not given here.

target: Furin (Homo sapiens) (UniProt P09958); test: human furin protease inhibitors, confirmation, biochemical, fluorescence intensity (AID 463180); details: Recombinant furin, fluorogenic substrate cleavage, at 50 µM, stronger effect = higher value
Sequence (P09958 108-714 limits assumed): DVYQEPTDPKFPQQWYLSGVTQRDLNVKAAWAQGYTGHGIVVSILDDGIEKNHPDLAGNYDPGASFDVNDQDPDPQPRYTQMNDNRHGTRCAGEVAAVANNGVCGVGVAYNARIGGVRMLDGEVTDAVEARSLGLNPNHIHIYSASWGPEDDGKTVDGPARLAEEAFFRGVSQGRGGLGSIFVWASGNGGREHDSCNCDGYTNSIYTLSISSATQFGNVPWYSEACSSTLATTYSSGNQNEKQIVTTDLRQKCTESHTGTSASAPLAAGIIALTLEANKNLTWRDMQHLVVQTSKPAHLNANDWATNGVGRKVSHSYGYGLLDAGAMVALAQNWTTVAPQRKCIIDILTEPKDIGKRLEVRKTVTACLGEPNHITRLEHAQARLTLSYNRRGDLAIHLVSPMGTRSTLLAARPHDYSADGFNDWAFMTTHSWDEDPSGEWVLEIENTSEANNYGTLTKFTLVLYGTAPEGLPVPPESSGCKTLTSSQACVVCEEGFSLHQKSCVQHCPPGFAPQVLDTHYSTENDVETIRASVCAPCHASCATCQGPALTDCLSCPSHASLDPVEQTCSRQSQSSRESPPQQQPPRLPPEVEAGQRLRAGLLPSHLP

Structure (SMILES) | inhibition
CCNC(=O)C1CC(=O)N(Cc2ccc3c(c2)OCO3)C(=Nc2ccc(F)cc2)S1 (stereo not given) | -9.04% (inactive)
O=C(c1ccco1)N1CCN(C2CC(=O)N(c3ccc4c(c3)OCO4)C2=O)CC1 (stereo not given) | -17% (inactive)
COc1cc(/C=C/C(=O)OCC(=O)NC(=O)NC(C)C)ccc1O | 3.94% (inactive)
CNC(=O)C1CC(=O)N(CCc2ccc(OC)cc2)C(=Nc2ccc(OC)cc2)S1 (stereo not given) | -13.8% (inactive)
COc1ccc(S(=O)(=O)NCCC(=O)NCc2ccc(F)cc2)cc1 | -20.3% (inactive)
O=C(NCc1ccccc1)C1COc2ccccc2O1 (stereo not given) | -16.5% (inactive)
Cc1nc(SCc2ccc(O)c([N+](=O)[O-])c2)n[nH]1 | 0.762% (inactive)
Cc1cccc(-n2c(O)c(/C=C/C=Nc3ccccc3)c(=O)[nH]c2=O)c1 | 14.2%
COC(=O)c1ccc(Cn2nc(C)c(Cl)c2C)o1 | -14.9% (inactive)
COC(=O)C1C(=O)/C(=C/N(C)C)C(=O)CC1(C)C (stereo not given) | 4.91% (inactive)
N#CC1=C(N)NC(SCc2ccc(Br)cc2)=C(C#N)C12CCCCC2 | -6.5% (inactive)
CCn1c(C)c(CCC(=O)O)c(=O)n2nc(-c3ccccc3OC)cc12 | -22.2% (inactive)
CSc1nc(N)c(N=Nc2ccc([As](=O)(O)O)cc2)c(=O)[nH]1 | 15.9%
CC1(C)CC(=O)C(C=Nc2cccnc2)=C(O)C1 | 21.6%
COc1cccc(-n2nnc3c(=O)n(Cc4ccccc4Cl)cnc32)c1 | -14.9% (inactive)
COC(=O)c1ccc(NC2(C#N)C(=O)Nc3ccccc32)cc1 (stereo not given) | -18.6% (inactive)
Cc1cc(Cl)ccc1OCCCC(=O)N1CCOCC1 | -18.9% (inactive)
COc1ccccc1NC(=O)c1cc(S(=O)(=O)N2CCOCC2)ccc1Cl | -16.1% (inactive)
CC(=O)Nc1cc(-c2ccc(Cl)cc2)nn1-c1ccccc1 | -20% (inactive)
CCC(Sc1ncccc1C(=O)O)C(=O)N1CCCC1 (stereo not given) | -20.2% (inactive)
CCCOc1ccc(C2NC(=O)NC2=O)cc1 (stereo not given) | -10.8% (inactive)
CC1(C)CC(=O)C(C=Nc2cccnc2/N=C/C2=C(O)CC(C)(C)CC2=O)=C(O)C1 | 0.675% (inactive)
CCCC(=O)Nc1cccc(Oc2nc(C)cc(C)c2C#N)c1 | -3.32% (inactive)

Structure (SMILES) | inhibition
O=C(CCN1C(=O)c2ccccc2C1=O)N(CCO)Cc1ccccc1 | -16.7% (inactive)
Cn1ncc(Cl)c1C(=O)Nc1cccc(Cl)c1 | -11% (inactive)
CCOC(=O)C(CC)Sc1nc2c(c(=O)[nH]c(=O)n2C)n1C/C=C(/C)Cl (stereo not given) | -19.2% (inactive)
CCC(C)C(NC(=O)C1CCC(C)CC1)C(=O)NCc1cccnc1 (stereo not given) | -18.4% (inactive)
O=C(Cc1c[nH]c2ccccc12)N1CCc2ccccc21 | -24.6% (inactive)
CC1(C)CC(=O)C(C=Nc2ccc(Cl)cn2)=C(O)C1 | -4.84% (inactive)
CCn1c(SCC(=O)Nc2cc(F)ccc2C)nnc1-c1ccccc1O | -18.5% (inactive)
CNc1nc(NCCOC23CC4CC(CC(C4)C2)C3)nc(OCC(F)(F)F)n1 | -19.7% (inactive)
Cc1ccc(-n2nc3cc(C)c(NC(=O)c4cccnc4)cc3n2)cc1 | -15.7% (inactive)
CN1CCN(c2ccccc2NC(=O)c2cccc(OCc3ccccc3)c2)CC1 | -16% (inactive)
CCSc1ccccc1C(=O)Nc1nncs1 | -22.6% (inactive)
O=C(C1Cc2ccccc2CN1S(=O)(=O)c1cccs1)N1CCCCC1 (stereo not given) | -7.18% (inactive)
O=C1CC(=C2c3ccccc3-c3ccccc32)C(=O)N1CCCCN1CCN(c2ccccc2)CC1 | 9.51% (inactive)
Cc1cc(N=CC2=C(O)CCCC2=O)no1 | -4.93% (inactive)
Cc1cc(N=CC2=C(O)CC(C)(C)CC2=O)no1 | -1.24% (inactive)
CCN1CCS/C1=C\C=C\C1=[N+](CC)CCS1 | 63.4%
O=C1CC(N2CCC(c3nc4ccccc4o3)CC2)C(=O)N1Cc1cccs1 (stereo not given) | -13.2% (inactive)
COC(=O)c1[nH]c2cc(OC)ccc2c1NC(=O)CCN1CCCCC1 | -14.9% (inactive)
CCCCCC(=O)N(CN1C(=O)CCC1=O)c1ccccc1 | -20.9% (inactive)
CSc1n[nH]c(NCc2ccc(C)cc2)n1 | -16.7% (inactive)
COc1ccc(N=CC2=C(O)CC(C)(C)CC2=O)cc1 | 8.92% (inactive)
O=C1C=C(c2ccc(Cl)cc2)OC2(CCCC2)O1 | -10.7% (inactive)
OC1C2CN3CCN(C2)CC1(Cc1ccccc1)C3 (stereo not given) | -20.6% (inactive)

Structure (SMILES) | inhibition
COC(=O)c1[nH]c2ccccc2c1NC(=O)CN1CCC(C(N)=O)(N2CCCCC2)CC1 | -12.8% (inactive)
Cc1ccccc1-n1c(O)c(C=Nc2ccc(N(C)C)cc2)c(=O)[nH]c1=O | 20.3%
CC1(C)CC(=O)C(/C=N/n2cnc3ccccc3c2=O)=C(O)C1 | 7.64% (inactive)
CCOC(=O)C(CC)Sc1nnc(COc2ccc(C)cc2)n1-c1ccccc1 (stereo not given) | -0.94% (inactive)
Cc1ccc(SCCCCN2C(=O)NC(C)(C)C2=O)cc1 | -8.35% (inactive)
CCOC(=O)c1cc(CC)sc1/N=C/C1=C(O)CCCC1=O | -4.4% (inactive)
NC(=O)c1ccccc1N/C=C/C(=O)c1ccc(F)cc1 | -9.67% (inactive)
O=C(CN1C(=O)c2ccccc2C1=O)Nc1sc2c(c1C(=O)NCc1ccco1)CCCC2 | -11.4% (inactive)
Cc1cccc(/N=C/C2=C(O)CC(C)(C)CC2=O)n1 | 13.1%
OC(CNCC1CCCO1)Cn1c2ccc(Br)cc2c2cc(Br)ccc21 (stereo not given) | -2.62% (inactive)
CCCCOc1ccc(-c2ncc(Cl)cn2)cc1 | -14.4% (inactive)
COc1ccc(NC(=O)CSc2nncn2C)cc1OC | -12.4% (inactive)
O=C(COc1ccc(Cl)cc1Cl)NC(=O)N1CCOCC1 | -20.4% (inactive)
CCOC(=O)C(C(=O)NCC1CCCO1)C1CCCCC1 (stereo not given) | -17.6% (inactive)
O=C(Nc1ccccc1)N(CCN1CCOCC1)Cc1ccccc1F | -13% (inactive)
C=CCn1c(O)c(/C=N/NC(=O)c2ccncc2)c(=O)[nH]c1=O | 5.98% (inactive)
Cc1ccc2nc(/C(C#N)=C/c3cn[nH]c3-c3ccc(F)cc3)[nH]c2c1 | 8.39% (inactive)
O=C(COC(=O)c1ccc[nH]c1=O)NCC1CCCO1 (stereo not given) | -31.2% (inactive)
COc1cc(C(=O)Nc2ccc(-c3nnc(-c4ccco4)o3)cc2)cc(OC)c1OC | -21% (inactive)
COc1ccc(/C=N/n2c(=O)[nH]c3c([nH]c4ccc(C)cc43)c2=O)cc1CN1CCOCC1 | -14% (inactive)
CN1/C(=C\C=C2C(=O)NC(=O)NC2=O)C(C)(C)c2ccccc21 | 1.52% (inactive)
CCCCN1CCC(O)(c2ccccc2)C(C(=O)c2ccccc2)C1 (stereo not given) | -20.5% (inactive)
CCCOP(=O)(c1ccc(N(C)C)cc1)C(Nc1ccccc1)c1ccc(N(C)C)cc1 (stereo not given) | 31.5%

Structure (SMILES) | inhibition
Cc1c(NC(=O)c2ccc(Cl)c(S(=O)(=O)N3CCOCC3)c2)c(=O)n(-c2ccccc2)n1C | -23.3% (inactive)
COc1ccc(NC(=O)Nc2ncn(Cc3cccc(C(F)(F)F)c3)n2)cc1OC | -15.8% (inactive)
COc1cc(NC(=O)c2ccccc2)c(OC)cc1Cl | -9.8% (inactive)
CC(=O)NC(C)c1nc2ccccc2n1Cc1ccccc1F (stereo not given) | -16.7% (inactive)
CCCCCc1nnc(NC(=O)C2CCCO2)s1 (stereo not given) | -22.1% (inactive)
O=C1CC(c2ccccc2)CC(=O)C1=CN1CCCC1 (stereo not given) | 1.13% (inactive)
CC1(C)CC(=O)C(/C=N/c2ccccn2)=C(O)C1 | 2.22% (inactive)
COC(=O)COc1ccc(S(=O)(=O)NCC2CCCO2)cc1Cl (stereo not given) | -21.4% (inactive)
COc1nc(C)ccc1-c1noc(-c2ccccn2)n1 | -16.6% (inactive)
COc1ccc(C(=O)NCCN2CCOCC2)cc1OC | -19.6% (inactive)
CCOC(=O)c1cc(C)sc1/N=C/C1C(=O)CCCC1=O | -15.3% (inactive)
COc1ccc(S(=O)(=O)Nc2cc(C(C)C)c(O)cc2C)cc1 | -20.4% (inactive)
COc1ccccc1C(=O)NC(C)C(c1cccs1)N1CCOCC1 (stereo not given) | -25.9% (inactive)
COc1cc(S(=O)(=O)Nc2ncccc2C)c(OC)cc1Cl | -4.1% (inactive)
CCOC(=O)c1c(/N=C/C2=C(O)CCCC2=O)sc(C)c1C | -13.1% (inactive)
CCOC(=O)c1cc(C)sc1/N=C/C1=C(O)CCCC1=O | -5.31% (inactive)
O=C(CN1C(=O)C2C3C=CC(C3)C2C1=O)NCc1ccc2c(c1)OCO2 (stereo not given) | -17.4% (inactive)
CCOC(=O)NC(=O)CSc1nnnn1-c1ccccc1 | -19.1% (inactive)
CCN1CCS/C1=C/C=C/C1=[N+](CC)CCS1 | 61.3%
Cc1cccc(/C=C2/S/C(=N/N=C3\CC4CCC3(C)C4(C)C)NC2=O)c1 (stereo not given) | 12.3%
CCCCCCN1C=CC=C/C1=C/C=C(C#N)C#N | 6.58% (inactive)
